Source: ChEMBL document CHEMBL1135815, “Design, synthesis, and pharmacological evaluation of new farnesyl protein transferase inhibitors” (J Med Chem, 2002)

Legend:
[1] = target: Geranylgeranyl transferase type I (Homo sapiens, UniProt P49354+P53609); experiment: Inhibition of Geranylgeranyl transferase type I (GGPT I) catalyzed transfer of GGPP to dansyl-GCVLL; type: protein-complex assay
[2] = target: Protein farnesyltransferase (Homo sapiens, UniProt P49354+P49356); experiment: Inhibition of Farnesyltransferase catalyzed transfer of the FPP moiety to dansyl-GCVLS; type: protein-complex assay

| SMILES | IC50 [1] [µM] | IC50 [2] [µM] |
| --- | --- | --- |
| COC(=O)[C@H](CCSC)N(C(=O)c1ccccc1)C1CCN(Cc2cscn2)CC1 | > 100 | 41.7 |
| CSCC[C@H](NC(=O)c1ccc(NC(=O)[C@@H](N)CS)cc1)C(=O)O | > 100 | 0.072 |
| COC(=O)[C@H](CCSC)N(C(=O)c1ccccc1)C1CCN(C(=O)c2cscn2)CC1 | > 100 | 52.5 |
| CSCCC(NC(=O)[C@H](Cc1ccccc1)NCC[C@@H](C)CNC[C@H](N)CSC)C(=O)O (stereo partly specified) | 5.1 | 0.034 |
| COC(=O)[C@H](CCSC)N(C(=O)c1ccccc1)C1CCN(Cc2c[nH]cn2)CC1 | > 100 | 16.2 |
| COC(=O)[C@H](CCSC)N(C(=O)c1ccccc1)C1CCNCC1 | – | > 100 |
| COC(=O)[C@H](CCSC)N(C(=O)c1ccccc1)C1CCN(C(=O)C(N)CS)CC1 (stereo partly specified) | > 100 | 0.02 |
| COC(=O)[C@H](CCSC)N(C(=O)c1ccccc1)C1CCN(C(=O)[C@H]2CSCN2)CC1 | – | > 100 |
| COC(=O)[C@H](CCSC)N(C(=O)c1ccccc1)C1CCN(C(=O)[C@@H]2CSCN2)CC1 | > 100 | 2.14 |
